Measured values published in ChEMBL document CHEMBL5653631, “A Potent and Selective ULK1 Inhibitor Suppresses Autophagy and Sensitizes Cancer Cells to Nutrient Stress” (iScience, 2018).
Blank lines part the entries; values can stand above or below the compound they belong to.

Tests used:
[1] = biological target: T1, Serine/threonine-protein kinase Chk1 (Homo sapiens) (UniProt O14757); assay: Inhibition of human recombinant CHK1 at 500 nM in presence of ATP by radiometric assay relative to control
T1 sequence (whole entry): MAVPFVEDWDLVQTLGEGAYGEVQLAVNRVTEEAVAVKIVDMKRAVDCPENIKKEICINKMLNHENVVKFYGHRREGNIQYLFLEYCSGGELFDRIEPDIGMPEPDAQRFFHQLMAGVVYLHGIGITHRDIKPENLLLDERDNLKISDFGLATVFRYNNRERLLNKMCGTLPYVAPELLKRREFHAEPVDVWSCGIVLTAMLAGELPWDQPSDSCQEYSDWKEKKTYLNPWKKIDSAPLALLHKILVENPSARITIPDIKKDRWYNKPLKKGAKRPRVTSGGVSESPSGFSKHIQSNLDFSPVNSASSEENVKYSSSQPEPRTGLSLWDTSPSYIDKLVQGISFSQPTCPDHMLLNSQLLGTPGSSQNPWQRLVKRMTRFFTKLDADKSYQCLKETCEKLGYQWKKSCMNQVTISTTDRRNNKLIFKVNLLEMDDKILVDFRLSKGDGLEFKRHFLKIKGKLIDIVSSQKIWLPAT

[2] = biological target: T2, Serine/threonine-protein kinase 17A (Homo sapiens) (UniProt Q9UEE5); assay: Inhibition of human recombinant DRAK1 at 500 nM in presence of ATP by radiometric assay relative to control
T2 sequence (whole entry): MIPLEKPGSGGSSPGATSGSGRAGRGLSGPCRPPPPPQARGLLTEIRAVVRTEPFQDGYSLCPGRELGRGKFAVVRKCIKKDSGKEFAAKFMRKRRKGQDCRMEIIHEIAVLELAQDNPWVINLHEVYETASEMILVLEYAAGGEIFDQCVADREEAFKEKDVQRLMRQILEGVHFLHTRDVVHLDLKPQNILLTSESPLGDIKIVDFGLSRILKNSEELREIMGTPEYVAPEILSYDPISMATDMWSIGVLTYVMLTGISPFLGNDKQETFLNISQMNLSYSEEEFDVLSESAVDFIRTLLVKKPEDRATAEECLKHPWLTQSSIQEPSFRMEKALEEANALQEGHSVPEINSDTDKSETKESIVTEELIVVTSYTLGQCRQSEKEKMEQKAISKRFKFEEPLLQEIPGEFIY

[3] = biological target: Homeodomain-interacting protein kinase 3 (Homo sapiens) (UniProt Q9H422); assay: Inhibition of human recombinant HIPK3 at 500 nM in presence of ATP by radiometric assay relative to control
Chain of Homeodomain-interacting protein kinase 3 (Homo sapiens) (Q9H422 whole entry, looked up): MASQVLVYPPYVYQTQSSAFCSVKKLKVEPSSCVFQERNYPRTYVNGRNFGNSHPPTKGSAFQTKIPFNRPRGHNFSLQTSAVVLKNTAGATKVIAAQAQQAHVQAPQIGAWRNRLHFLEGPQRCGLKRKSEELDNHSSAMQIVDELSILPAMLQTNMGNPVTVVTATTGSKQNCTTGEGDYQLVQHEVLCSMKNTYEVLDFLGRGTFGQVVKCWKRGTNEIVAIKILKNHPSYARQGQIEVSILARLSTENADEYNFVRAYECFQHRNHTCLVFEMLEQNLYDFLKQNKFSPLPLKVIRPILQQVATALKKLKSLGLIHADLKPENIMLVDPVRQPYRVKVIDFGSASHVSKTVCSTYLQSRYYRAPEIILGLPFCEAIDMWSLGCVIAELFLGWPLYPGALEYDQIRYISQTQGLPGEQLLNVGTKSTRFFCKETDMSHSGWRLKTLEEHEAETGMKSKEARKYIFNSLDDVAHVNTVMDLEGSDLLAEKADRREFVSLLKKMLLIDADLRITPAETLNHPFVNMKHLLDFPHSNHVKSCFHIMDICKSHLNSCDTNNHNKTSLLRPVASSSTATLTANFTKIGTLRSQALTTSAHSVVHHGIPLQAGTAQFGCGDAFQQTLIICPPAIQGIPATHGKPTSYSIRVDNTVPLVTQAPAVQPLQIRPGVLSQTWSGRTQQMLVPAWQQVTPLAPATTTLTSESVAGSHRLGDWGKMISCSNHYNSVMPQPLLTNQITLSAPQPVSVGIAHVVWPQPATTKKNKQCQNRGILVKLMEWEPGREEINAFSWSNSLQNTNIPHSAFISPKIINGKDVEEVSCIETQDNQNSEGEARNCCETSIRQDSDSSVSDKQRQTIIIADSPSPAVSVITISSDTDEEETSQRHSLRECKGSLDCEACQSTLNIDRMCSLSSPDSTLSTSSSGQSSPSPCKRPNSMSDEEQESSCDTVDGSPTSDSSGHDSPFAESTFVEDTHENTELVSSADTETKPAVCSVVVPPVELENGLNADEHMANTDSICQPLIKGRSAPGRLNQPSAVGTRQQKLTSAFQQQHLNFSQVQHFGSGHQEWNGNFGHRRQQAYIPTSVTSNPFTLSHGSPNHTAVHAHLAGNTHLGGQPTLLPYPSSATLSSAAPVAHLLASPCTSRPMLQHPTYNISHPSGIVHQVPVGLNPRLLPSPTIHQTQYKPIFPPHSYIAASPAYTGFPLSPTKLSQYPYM

[4] = biological target: Leucine-rich repeat serine/threonine-protein kinase 2 (Homo sapiens) (UniProt Q5S007); assay: Inhibition of human recombinant LRRK2 at 500 nM in presence of ATP by radiometric assay relative to control
[5] = biological target: Interferon-induced, double-stranded RNA-activated protein kinase (Homo sapiens) (UniProt P19525); assay: Inhibition of human recombinant PKR at 500 nM in presence of ATP by radiometric assay relative to control
Chain of Interferon-induced, double-stranded RNA-activated protein kinase (Homo sapiens) (P19525 whole entry): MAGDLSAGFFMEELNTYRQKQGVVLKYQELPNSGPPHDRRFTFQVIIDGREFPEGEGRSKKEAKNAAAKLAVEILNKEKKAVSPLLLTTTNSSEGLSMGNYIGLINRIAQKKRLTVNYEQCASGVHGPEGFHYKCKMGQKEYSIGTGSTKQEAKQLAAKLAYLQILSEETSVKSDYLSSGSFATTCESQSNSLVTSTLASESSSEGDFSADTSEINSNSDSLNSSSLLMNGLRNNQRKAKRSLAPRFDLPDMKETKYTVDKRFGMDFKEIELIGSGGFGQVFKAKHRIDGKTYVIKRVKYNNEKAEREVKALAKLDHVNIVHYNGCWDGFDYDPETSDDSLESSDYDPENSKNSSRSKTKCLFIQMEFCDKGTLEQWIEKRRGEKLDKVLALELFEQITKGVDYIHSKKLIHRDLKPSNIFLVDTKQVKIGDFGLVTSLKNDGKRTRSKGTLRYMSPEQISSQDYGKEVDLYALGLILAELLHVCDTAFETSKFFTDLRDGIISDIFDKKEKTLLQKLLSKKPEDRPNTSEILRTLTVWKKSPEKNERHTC

[6] = biological target: Calcium/calmodulin-dependent protein kinase type 1 (Homo sapiens) (UniProt Q14012); assay: Inhibition of human recombinant CaMK1a at 500 nM related to control ULK1
Chain of Calcium/calmodulin-dependent protein kinase type 1 (Homo sapiens) (Q14012 whole entry, looked up): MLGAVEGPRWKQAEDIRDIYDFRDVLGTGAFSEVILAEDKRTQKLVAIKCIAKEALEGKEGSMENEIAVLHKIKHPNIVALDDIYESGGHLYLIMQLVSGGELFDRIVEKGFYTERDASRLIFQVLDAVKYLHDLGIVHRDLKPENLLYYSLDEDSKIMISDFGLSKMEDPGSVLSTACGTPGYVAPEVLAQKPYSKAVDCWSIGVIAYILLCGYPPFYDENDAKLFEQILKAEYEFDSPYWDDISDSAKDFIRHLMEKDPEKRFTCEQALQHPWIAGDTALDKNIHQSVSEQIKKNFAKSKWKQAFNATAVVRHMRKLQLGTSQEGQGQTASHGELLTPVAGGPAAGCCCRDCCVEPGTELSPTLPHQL

[7] = biological target: Mast/stem cell growth factor receptor Kit (Homo sapiens) (UniProt P10721); assay: Inhibition of human recombinant KIT at 500 nM related to control ULK1
Chain of Mast/stem cell growth factor receptor Kit (Homo sapiens) (P10721 whole entry): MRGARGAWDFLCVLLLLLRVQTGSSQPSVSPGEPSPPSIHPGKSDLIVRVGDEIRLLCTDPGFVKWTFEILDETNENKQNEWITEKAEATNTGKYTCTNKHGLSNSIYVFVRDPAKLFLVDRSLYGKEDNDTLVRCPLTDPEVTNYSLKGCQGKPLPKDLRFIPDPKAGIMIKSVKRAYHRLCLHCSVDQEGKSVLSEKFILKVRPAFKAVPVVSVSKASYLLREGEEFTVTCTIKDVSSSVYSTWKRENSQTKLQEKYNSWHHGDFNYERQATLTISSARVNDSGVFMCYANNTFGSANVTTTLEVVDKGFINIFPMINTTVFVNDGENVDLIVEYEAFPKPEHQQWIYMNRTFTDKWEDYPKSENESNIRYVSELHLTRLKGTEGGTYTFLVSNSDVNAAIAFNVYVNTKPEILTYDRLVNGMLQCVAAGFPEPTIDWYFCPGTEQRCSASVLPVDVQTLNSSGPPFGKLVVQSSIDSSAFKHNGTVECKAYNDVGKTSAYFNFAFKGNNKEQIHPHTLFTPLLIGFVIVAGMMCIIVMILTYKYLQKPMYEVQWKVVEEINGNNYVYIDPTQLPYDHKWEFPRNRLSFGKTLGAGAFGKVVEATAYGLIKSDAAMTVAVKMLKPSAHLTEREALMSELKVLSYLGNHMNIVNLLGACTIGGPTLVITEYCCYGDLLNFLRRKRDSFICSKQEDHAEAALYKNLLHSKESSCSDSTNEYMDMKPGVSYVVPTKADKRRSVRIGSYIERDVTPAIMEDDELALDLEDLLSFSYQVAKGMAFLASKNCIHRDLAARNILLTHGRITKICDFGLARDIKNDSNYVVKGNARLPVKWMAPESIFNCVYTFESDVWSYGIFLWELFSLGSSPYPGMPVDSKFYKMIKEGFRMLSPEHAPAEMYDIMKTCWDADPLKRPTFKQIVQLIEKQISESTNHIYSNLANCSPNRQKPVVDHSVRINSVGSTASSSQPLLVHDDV

[8] = biological target: Glycogen synthase kinase-3 alpha (Homo sapiens) (UniProt P49840); assay: Inhibition of human recombinant GSK3A at 15 nM in presence of ATP by radiometric assay relative to control
[9] = species: Homo sapiens; assay: Inhibition of human recombinant p70S6K at 15 nM in presence of ATP by radiometric assay relative to control
[10] = biological target: Protein kinase C eta type (Homo sapiens) (UniProt P24723); assay: Inhibition of human recombinant PKCH at 15 nM in presence of ATP by radiometric assay relative to control
Chain of Protein kinase C eta type (Homo sapiens) (P24723 whole entry): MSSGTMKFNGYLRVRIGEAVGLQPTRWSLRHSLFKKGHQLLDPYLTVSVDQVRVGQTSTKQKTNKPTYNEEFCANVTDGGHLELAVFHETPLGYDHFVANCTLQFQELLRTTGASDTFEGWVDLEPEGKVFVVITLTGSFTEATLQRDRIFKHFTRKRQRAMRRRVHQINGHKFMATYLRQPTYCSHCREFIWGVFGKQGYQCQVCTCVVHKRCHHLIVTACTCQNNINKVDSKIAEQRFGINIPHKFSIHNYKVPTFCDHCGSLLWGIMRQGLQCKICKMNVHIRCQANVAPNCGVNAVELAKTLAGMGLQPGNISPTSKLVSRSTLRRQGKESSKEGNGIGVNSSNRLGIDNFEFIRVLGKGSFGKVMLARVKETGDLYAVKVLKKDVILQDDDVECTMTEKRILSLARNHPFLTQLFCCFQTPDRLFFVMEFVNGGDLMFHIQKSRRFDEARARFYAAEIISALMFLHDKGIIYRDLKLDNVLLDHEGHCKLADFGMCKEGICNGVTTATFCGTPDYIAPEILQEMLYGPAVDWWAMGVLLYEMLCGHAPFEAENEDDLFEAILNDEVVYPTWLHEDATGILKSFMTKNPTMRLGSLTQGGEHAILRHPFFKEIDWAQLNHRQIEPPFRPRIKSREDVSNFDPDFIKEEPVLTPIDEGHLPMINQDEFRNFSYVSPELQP

[11] = biological target: Death-associated protein kinase 3 (Homo sapiens) (UniProt O43293); assay: Inhibition of human recombinant DAPK3 at 40 nM in presence of ATP by radiometric assay relative to control
[12] = biological target: T3, Ephrin type-A receptor 3 (Homo sapiens) (UniProt P29320); assay: Inhibition of human recombinant EphA3 at 40 nM in presence of ATP by radiometric assay relative to control
T3 sequence (whole entry): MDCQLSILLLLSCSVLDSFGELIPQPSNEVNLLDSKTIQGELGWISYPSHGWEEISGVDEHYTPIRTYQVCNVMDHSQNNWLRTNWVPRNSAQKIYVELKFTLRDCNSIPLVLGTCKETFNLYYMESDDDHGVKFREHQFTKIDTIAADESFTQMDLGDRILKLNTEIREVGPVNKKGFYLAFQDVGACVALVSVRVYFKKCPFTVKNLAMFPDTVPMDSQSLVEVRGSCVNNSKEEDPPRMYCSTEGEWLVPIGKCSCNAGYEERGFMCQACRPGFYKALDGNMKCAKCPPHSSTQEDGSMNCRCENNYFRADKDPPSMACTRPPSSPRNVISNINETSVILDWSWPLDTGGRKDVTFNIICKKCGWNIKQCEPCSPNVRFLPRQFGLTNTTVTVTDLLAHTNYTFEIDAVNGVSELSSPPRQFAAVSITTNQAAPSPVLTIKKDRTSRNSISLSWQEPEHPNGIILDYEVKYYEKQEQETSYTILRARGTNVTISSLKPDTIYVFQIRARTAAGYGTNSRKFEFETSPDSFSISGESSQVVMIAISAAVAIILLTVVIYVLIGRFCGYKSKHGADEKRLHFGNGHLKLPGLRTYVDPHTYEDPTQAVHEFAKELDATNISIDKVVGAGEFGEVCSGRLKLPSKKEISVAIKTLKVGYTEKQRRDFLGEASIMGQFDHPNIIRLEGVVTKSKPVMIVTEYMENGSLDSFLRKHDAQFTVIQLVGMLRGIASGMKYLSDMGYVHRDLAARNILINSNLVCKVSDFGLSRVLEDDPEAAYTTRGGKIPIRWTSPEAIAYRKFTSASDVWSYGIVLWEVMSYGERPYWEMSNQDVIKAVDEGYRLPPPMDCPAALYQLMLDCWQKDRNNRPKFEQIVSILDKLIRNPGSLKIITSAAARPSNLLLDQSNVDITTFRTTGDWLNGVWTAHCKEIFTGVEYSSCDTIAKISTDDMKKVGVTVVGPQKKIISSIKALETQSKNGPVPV

[13] = biological target: Casein kinase I isoform gamma-2 (Homo sapiens) (UniProt P78368); assay: Inhibition of human recombinant CK1g2 at 40 nM related to control ULK1
Chain of Casein kinase I isoform gamma-2 (Homo sapiens) (P78368 whole entry, looked up, canonical isoform): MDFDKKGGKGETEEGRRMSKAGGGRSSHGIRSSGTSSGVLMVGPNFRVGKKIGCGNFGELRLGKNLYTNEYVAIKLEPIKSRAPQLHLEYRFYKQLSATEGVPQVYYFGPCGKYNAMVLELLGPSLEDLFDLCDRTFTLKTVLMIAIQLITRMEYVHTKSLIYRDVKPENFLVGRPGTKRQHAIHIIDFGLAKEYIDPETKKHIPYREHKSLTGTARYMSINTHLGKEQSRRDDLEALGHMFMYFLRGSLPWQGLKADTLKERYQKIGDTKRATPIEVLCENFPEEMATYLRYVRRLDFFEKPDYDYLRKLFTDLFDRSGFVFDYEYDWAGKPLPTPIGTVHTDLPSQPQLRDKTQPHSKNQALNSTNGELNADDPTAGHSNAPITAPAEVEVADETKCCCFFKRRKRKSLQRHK

[14] = biological target: Receptor tyrosine-protein kinase erbB-4 (Homo sapiens) (UniProt Q15303); assay: Inhibition of human recombinant ErbB4 at 40 nM related to control ULK1
[15] = biological target: Serine/threonine-protein kinase 38-like (Homo sapiens) (UniProt Q9Y2H1); assay: Inhibition of human recombinant NDR2 at 40 nM related to control ULK1
Chain of Serine/threonine-protein kinase 38-like (Homo sapiens) (Q9Y2H1 2-464 limits assumed): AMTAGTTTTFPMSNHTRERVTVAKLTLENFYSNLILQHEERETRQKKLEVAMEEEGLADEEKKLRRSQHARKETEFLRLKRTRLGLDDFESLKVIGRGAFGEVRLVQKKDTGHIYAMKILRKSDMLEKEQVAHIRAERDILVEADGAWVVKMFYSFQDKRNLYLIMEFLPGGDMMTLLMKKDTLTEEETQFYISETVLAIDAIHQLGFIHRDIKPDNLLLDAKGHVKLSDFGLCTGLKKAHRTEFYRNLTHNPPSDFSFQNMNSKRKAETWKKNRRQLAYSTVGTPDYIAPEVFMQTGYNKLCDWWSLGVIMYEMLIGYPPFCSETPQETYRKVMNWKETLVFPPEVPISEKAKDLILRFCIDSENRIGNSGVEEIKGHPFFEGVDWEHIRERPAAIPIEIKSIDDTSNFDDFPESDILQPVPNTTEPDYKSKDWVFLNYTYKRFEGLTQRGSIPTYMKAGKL

inhibition [1]: 4% | inhibition [2]: 0% | inhibition [3]: 6% | inhibition [4]: 35% | inhibition [5]: 4% | fold change (FC) [6]: 0 | fold change (FC) [7]: 0.01
SMILES: CNC(=O)c1ccccc1Oc1nc(Nc2cc(OC)c(OC)c(OC)c2)ncc1Br

inhibition [8]: 0% | inhibition [9]: 17% | inhibition [10]: 0%
SMILES: CC(C)[C@H](NC(=O)c1cc(-c2cnn3cc(-c4ccc(OCCN5CCCCC5)cc4)cnc23)cs1)C(F)(F)F

inhibition [12]: 15% | fold change (FC) [13]: 0.07 | fold change (FC) [14]: 0 | fold change (FC) [15]: 0
SMILES: O=C(N[C@@H](C1CC1)C(F)(F)F)c1cc(-c2cnn3cc(-c4ccc(F)cc4)cnc23)cs1
inhibition [11]: 8%
